Source: PubChem BioAssay (NCI)
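Dose response: 5 concentrations. Exposure: 48 h. Format: 96-well plates. Endpoint: linear interpolation; highest concentration if not reached. GI50 is the concentration that inhibits growth by half. The concentration for full growth arrest is given as TGI.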

Experiments:
Assay in all cases: NCI anticancer screen, dose series, 48 h; in the data active = GI50 below about 0.43 µM; inactive = the rest
786-0 renal = system: 786-0 renal
A498 renal = system: A498 renal
A549 NSCLC = system: A549 NSCLC
ACHN renal = system: ACHN renal
BT-549 breast = system: BT-549 breast
CAKI-1 renal = system: CAKI-1 renal
CCRF-CEM leukemia = system: CCRF-CEM leukemia
COLO 205 colon = system: COLO 205 colon
DU-145 prostate = system: DU-145 prostate
EKVX NSCLC = system: EKVX NSCLC
HCC-2998 colon = system: HCC-2998 colon
HCT-116 colon = system: HCT-116 colon
HCT-15 colon = system: HCT-15 colon
HOP-62 NSCLC = system: HOP-62 NSCLC
HOP-92 NSCLC = system: HOP-92 NSCLC
HS 578T breast = system: HS 578T breast
HT29 colon = system: HT29 colon
IGROV1 ovarian = system: IGROV1 ovarian
K-562 leukemia = system: K-562 leukemia
KM12 colon = system: KM12 colon
LOX IMVI melanoma = system: LOX IMVI melanoma
M14 melanoma = system: M14 melanoma
MALME-3M melanoma = system: MALME-3M melanoma
MCF7 breast = system: MCF7 breast
MDA-MB-231 breast = system: MDA-MB-231 breast
MDA-MB-435 = system: MDA-MB-435
MOLT-4 leukemia = system: MOLT-4 leukemia
NCI-H226 lung = system: NCI-H226 lung
NCI-H23 lung = system: NCI-H23 lung
NCI-H460 lung = system: NCI-H460 lung
NCI-H522 lung = system: NCI-H522 lung
NCI/ADR-RES ovarian = system: NCI/ADR-RES ovarian
OVCAR-3 ovarian = system: OVCAR-3 ovarian
OVCAR-4 ovarian = system: OVCAR-4 ovarian
OVCAR-5 ovarian = system: OVCAR-5 ovarian
OVCAR-8 ovarian = system: OVCAR-8 ovarian
PC-3 prostate = system: PC-3 prostate
RPMI-8226 leukemia = system: RPMI-8226 leukemia
RXF 393 renal = system: RXF 393 renal
SF-268 CNS = system: SF-268 CNS
SF-295 CNS = system: SF-295 CNS
SF-539 CNS = system: SF-539 CNS
SK-MEL-2 melanoma = system: SK-MEL-2 melanoma
SK-MEL-28 melanoma = system: SK-MEL-28 melanoma
SK-MEL-5 melanoma = system: SK-MEL-5 melanoma
SK-OV-3 ovarian = system: SK-OV-3 ovarian
SN12C renal = system: SN12C renal
SNB-19 CNS = system: SNB-19 CNS
SNB-75 CNS = system: SNB-75 CNS
SR leukemia = system: SR leukemia
SW-620 colon = system: SW-620 colon
T-47D breast = system: T-47D breast
TK-10 renal = system: TK-10 renal
U251 CNS = system: U251 CNS
UACC-257 melanoma = system: UACC-257 melanoma
UACC-62 melanoma = system: UACC-62 melanoma
UO-31 renal = system: UO-31 renal
HL-60(TB) leukemia = system: HL-60(TB) leukemia

CCOc1cc(C(C)(C)C)ccc1C1=N[C@H](c2ccc(Cl)cc2)[C@H](c2ccc(Cl)cc2)N1C(=O)N1CCN(CC#Cc2cccc3c2CN([C@@H]2CCC(=O)NC2=O)C3=O)CC1
> 34.8 µM: TGI (HT29 colon)
11.7 µM: TGI (NCI-H460 lung)
6.62 µM: TGI (A498 renal)
8.51 µM: TGI (HOP-92 NSCLC)
19.8 µM: TGI (BT-549 breast)
0.0797 µM: TGI (MDA-MB-231 breast)
> 43.2 µM: TGI (SNB-75 CNS)
18.4 µM: TGI (PC-3 prostate)
0.778 µM: TGI (MALME-3M melanoma)
12.4 µM: TGI (ACHN renal)
> 88.9 µM: TGI (SK-OV-3 ovarian)
> 100 µM: TGI (CCRF-CEM leukemia) | TGI (DU-145 prostate) | TGI (EKVX NSCLC) | TGI (HCC-2998 colon) | TGI (HS 578T breast) | TGI (K-562 leukemia) | TGI (KM12 colon) | TGI (MCF7 breast) | TGI (MOLT-4 leukemia) | TGI (NCI-H23 lung) | TGI (NCI/ADR-RES ovarian) | TGI (OVCAR-4 ovarian) | TGI (RPMI-8226 leukemia) | TGI (SF-268 CNS) | TGI (SF-539 CNS) | TGI (SK-MEL-28 melanoma) | TGI (SN12C renal) | TGI (SR leukemia) | TGI (SW-620 colon)
12.9 µM: TGI (T-47D breast)
> 47.3 µM: TGI (M14 melanoma)
> 47 µM: TGI (U251 CNS)
> 36.3 µM: TGI (HCT-116 colon)
> 77.3 µM: TGI (NCI-H522 lung)
22.7 µM: TGI (LOX IMVI melanoma)
> 43.1 µM: TGI (A549 NSCLC)
active: GI50 (A498 renal) 0.197 µM | GI50 (BT-549 breast) 0.317 µM | GI50 (CAKI-1 renal) 0.215 µM | GI50 (CCRF-CEM leukemia) 0.023 µM | GI50 (HCT-15 colon) 0.301 µM | GI50 (HOP-62 NSCLC) 0.115 µM | GI50 (HOP-92 NSCLC) 0.0372 µM | GI50 (HS 578T breast) 0.346 µM | GI50 (IGROV1 ovarian) 0.165 µM | GI50 (MALME-3M melanoma) 0.0331 µM | GI50 (MCF7 breast) 0.0712 µM | GI50 (MDA-MB-231 breast) 0.0192 µM | GI50 (MOLT-4 leukemia) 0.019 µM | GI50 (NCI-H226 lung) 0.112 µM | GI50 (OVCAR-4 ovarian) 0.101 µM | GI50 (OVCAR-8 ovarian) 0.157 µM | GI50 (PC-3 prostate) 0.085 µM | GI50 (SNB-75 CNS) 0.1 µM | GI50 (SW-620 colon) 0.143 µM | GI50 (T-47D breast) 0.0431 µM | GI50 (UO-31 renal) 0.236 µM
2.2 µM: TGI (SK-MEL-5 melanoma)
> 58.8 µM: TGI (SNB-19 CNS)
44 µM: TGI (TK-10 renal)
19.2 µM: TGI (SF-295 CNS)
> 53.5 µM: TGI (HCT-15 colon)
42.8 µM: TGI (786-0 renal)
inactive: GI50 (786-0 renal) 1.32 µM | GI50 (A549 NSCLC) 1.1 µM | GI50 (ACHN renal) 1.24 µM | GI50 (COLO 205 colon) 0.472 µM | GI50 (DU-145 prostate) 4.87 µM | GI50 (EKVX NSCLC) 3.98 µM | GI50 (HCC-2998 colon) 0.905 µM | GI50 (HCT-116 colon) 1.97 µM | GI50 (HT29 colon) 2.41 µM | GI50 (K-562 leukemia) 2.66 µM | GI50 (KM12 colon) 2.22 µM | GI50 (LOX IMVI melanoma) 2.05 µM | GI50 (M14 melanoma) 1.46 µM | GI50 (MDA-MB-435) 2.75 µM | GI50 (NCI-H23 lung) 8.14 µM | GI50 (NCI-H460 lung) 2.38 µM | GI50 (NCI-H522 lung) 6.59 µM | GI50 (NCI/ADR-RES ovarian) 1.79 µM | GI50 (OVCAR-3 ovarian) 2.81 µM | GI50 (OVCAR-5 ovarian) 4.5 µM | GI50 (RPMI-8226 leukemia) 2.3 µM | GI50 (RXF 393 renal) 2.12 µM | GI50 (SF-268 CNS) 1.2 µM | GI50 (SF-295 CNS) 2.53 µM | GI50 (SF-539 CNS) 4.49 µM | GI50 (SK-MEL-2 melanoma) 2.98 µM | GI50 (SK-MEL-28 melanoma) 3.29 µM | GI50 (SK-MEL-5 melanoma) 0.868 µM | GI50 (SK-OV-3 ovarian) 6.95 µM | GI50 (SN12C renal) 1.31 µM | GI50 (SNB-19 CNS) 2.1 µM | GI50 (SR leukemia) 0.642 µM | GI50 (TK-10 renal) 2.41 µM | GI50 (U251 CNS) 5.47 µM | GI50 (UACC-257 melanoma) 1.85 µM | GI50 (UACC-62 melanoma) 0.673 µM
> 51.6 µM: TGI (RXF 393 renal)
13.6 µM: TGI (SK-MEL-2 melanoma)
14.8 µM: TGI (UACC-257 melanoma)
4.33 µM: TGI (NCI-H226 lung)
> 53.8 µM: TGI (MDA-MB-435)
> 31.8 µM: TGI (OVCAR-8 ovarian)
> 54.3 µM: TGI (OVCAR-5 ovarian)
> 33.5 µM: TGI (IGROV1 ovarian)
16.3 µM: TGI (HOP-62 NSCLC)
14.7 µM: TGI (UACC-62 melanoma)
15.9 µM: TGI (OVCAR-3 ovarian)
9.59 µM: TGI (CAKI-1 renal)
2 µM: TGI (UO-31 renal)

O=C1NC(=S)S/C1=C/c1ccc2c(c1)OCO2
inactive: GI50 (786-0 renal) > 100 µM | GI50 (A498 renal) 28.7 µM | GI50 (A549 NSCLC) > 100 µM | GI50 (ACHN renal) > 100 µM | GI50 (CAKI-1 renal) > 100 µM | GI50 (CCRF-CEM leukemia) > 100 µM | GI50 (COLO 205 colon) > 100 µM | GI50 (DU-145 prostate) > 100 µM | GI50 (EKVX NSCLC) 88.4 µM | GI50 (HCC-2998 colon) > 100 µM | GI50 (HCT-116 colon) > 100 µM | GI50 (HCT-15 colon) > 100 µM | GI50 (HL-60(TB) leukemia) 77.3 µM | GI50 (HOP-62 NSCLC) > 100 µM | GI50 (HOP-92 NSCLC) 17.6 µM | GI50 (HS 578T breast) 36.8 µM | GI50 (HT29 colon) > 100 µM | GI50 (IGROV1 ovarian) 27.3 µM | GI50 (K-562 leukemia) > 100 µM | GI50 (KM12 colon) > 100 µM | GI50 (LOX IMVI melanoma) > 100 µM | GI50 (M14 melanoma) > 100 µM | GI50 (MALME-3M melanoma) 23 µM | GI50 (MCF7 breast) > 100 µM | GI50 (MDA-MB-231 breast) > 100 µM | GI50 (MDA-MB-435) > 100 µM | GI50 (MOLT-4 leukemia) > 100 µM | GI50 (NCI-H226 lung) > 100 µM | GI50 (NCI-H23 lung) > 100 µM | GI50 (NCI-H460 lung) > 100 µM | GI50 (NCI-H522 lung) > 100 µM | GI50 (NCI/ADR-RES ovarian) > 100 µM | GI50 (OVCAR-3 ovarian) 65.1 µM | GI50 (OVCAR-5 ovarian) > 100 µM | GI50 (OVCAR-8 ovarian) > 100 µM | GI50 (PC-3 prostate) 82.1 µM | GI50 (RPMI-8226 leukemia) > 100 µM | GI50 (RXF 393 renal) > 100 µM | GI50 (SF-268 CNS) > 100 µM | GI50 (SF-295 CNS) 88.3 µM | GI50 (SF-539 CNS) > 100 µM | GI50 (SK-MEL-28 melanoma) > 100 µM | GI50 (SK-MEL-5 melanoma) > 100 µM | GI50 (SK-OV-3 ovarian) > 100 µM | GI50 (SN12C renal) > 100 µM | GI50 (SNB-19 CNS) > 100 µM | GI50 (SR leukemia) > 100 µM | GI50 (SW-620 colon) > 100 µM | GI50 (T-47D breast) > 100 µM | GI50 (TK-10 renal) > 100 µM | GI50 (U251 CNS) > 100 µM | GI50 (UACC-257 melanoma) > 100 µM | GI50 (UACC-62 melanoma) > 100 µM | GI50 (UO-31 renal) 5.8 µM
87.7 µM: TGI (HOP-92 NSCLC)
> 100 µM: TGI (786-0 renal) | TGI (A498 renal) | TGI (A549 NSCLC) | TGI (ACHN renal) | TGI (CAKI-1 renal) | TGI (CCRF-CEM leukemia) | TGI (COLO 205 colon) | TGI (DU-145 prostate) | TGI (EKVX NSCLC) | TGI (HCC-2998 colon) | TGI (HCT-116 colon) | TGI (HCT-15 colon) | TGI (HL-60(TB) leukemia) | TGI (HOP-62 NSCLC) | TGI (HS 578T breast) | TGI (HT29 colon) | TGI (IGROV1 ovarian) | TGI (K-562 leukemia) | TGI (KM12 colon) | TGI (LOX IMVI melanoma) | TGI (M14 melanoma) | TGI (MALME-3M melanoma) | TGI (MCF7 breast) | TGI (MDA-MB-231 breast) | TGI (MDA-MB-435) | TGI (MOLT-4 leukemia) | TGI (NCI-H226 lung) | TGI (NCI-H23 lung) | TGI (NCI-H460 lung) | TGI (NCI-H522 lung) | TGI (NCI/ADR-RES ovarian) | TGI (OVCAR-3 ovarian) | TGI (OVCAR-5 ovarian) | TGI (OVCAR-8 ovarian) | TGI (PC-3 prostate) | TGI (RPMI-8226 leukemia) | TGI (RXF 393 renal) | TGI (SF-268 CNS) | TGI (SF-295 CNS) | TGI (SF-539 CNS) | TGI (SK-MEL-28 melanoma) | TGI (SK-MEL-5 melanoma) | TGI (SK-OV-3 ovarian) | TGI (SN12C renal) | TGI (SNB-19 CNS) | TGI (SR leukemia) | TGI (SW-620 colon) | TGI (T-47D breast) | TGI (TK-10 renal) | TGI (U251 CNS) | TGI (UACC-257 melanoma) | TGI (UACC-62 melanoma) | TGI (UO-31 renal)
